Measurements: patent publication US20050074867A1, “Preservation of competent cells at ambient temperatures” (priority 2001, published 2005)

Tested on: logarithmic E. coli cells
Assay: Preservation survival and stability of logarithmic E. coli cells loaded in vitro before foam drying
Format: cell-based
Settings: for Preservation Yield (Day 0) % Survival / Preservation Yield (Day 0) Cfu/ml / Stability (Day 7 at RT) % Survival / Stability (Day 7 at RT) Cfu/ml / Stability (Day 14) % Survival / Stability (Day 14) Cfu/ml: loaded with 10% MAG at 37° C. for 30 minutes
Procedure: (3) Loading of fresh electrocompetent E. coli cells before preservation: When applicable, one aliquot of the cell concentrate (3.2 ml of cells in PBS buffer, approx. 2×10^10 cfu/ml) was mixed with 0.8 ml of 50% methyl-glucoside (MAG; 10% final concentration) and incubated at 37° C. for 30 minutes (in vitro loading). A second aliquot (3.2 ml of the cell concentrate) was mixed with 0.8 ml of PBS buffer and incubated on ice for 30 minutes (control, unloaded cells). Similar to loading with MAG, the cells were loaded with 2-deoxyglucose (2-DOG) as described in Example 5 infra.
(4) Preservation of electrocompetent E. coli cells: The cells (resuspended in PBS buffer or on 20% sucrose) were mixed with an equal mass of preservation solution consisting of 45% 2:1 sucrose:raffinose or 45% 4:1 sucrose:MAG on ice. Altematively, the cell pellets were resuspended directly in 22.5% sucrose:raffinose or 22.5% 4:1 sucrose:MAG. The 0.5 g aliquots were distributed in 5 ml glass serum vials or 0.2 g aliquots were distributed in 1.2 ml glass serum vials. To determine the survival in preservation solution before drying, cell-containing mixtures were diluted in PBS buffer containing 20% sucrose and appropriate dilutions were spread plated in duplicate on L-agar plates.
The samples were dried by foam formation. The mixtures were foamed at 0° C. and kept at that temperature until foam formation occurred. After foam was well formed, shelf temperature was increased to 20° C. and drying continued overnight (at least 12 hours).
(5) Assaying the preserved E. coli cells: Dried samples were rehydrated at room temperature. 1 ml of rehydration solution (20% sucrose) was added to the 5 ml vials and 0.2 ml was added to the 1.2 ml vials. For the determination of preservation survival, rehydrated cells were diluted and spread plated in duplicate on L-agar plates. Plates were incubated at 37° C. overnight and colonies were counted the following day.
Bacterial culture was grown until OD550=0.5 was reached (mid-log growth stage). The cell concentrates were prepared as described previously. Control cells, which were not loaded, were incubated on ice for 30 minutes. Cell concentrates were incubated with different amounts (0.15-1%, 5%, 10% and 15%) of glucose and glucose nonmetabolizable analogs at 37° C. for 30 minutes (loading). These mixtures were preserved as described previously.
Accumulation of MAG in the cells prior to drying enhances preservation of logarithmic E. coli cells. Two cell concentrates (harvested at mid-log growth stage) were prepared as described previously. To induce uptake of MAG, 0.5% glucose was added to the growth medium (“induced culture”). Both concentrates were incubated with 10% MAG at 37° C. for 30 minutes (loading). When loading was completed, one concentrate was diluted 100-fold in PBS buffer and incubated at 37° C. for an additional 30 minutes to induce expulsion of the pre-accumulated MAG. Both concentrates were preserved as described previously.
Mid-logarithmic culture was prepared as described previously. 0.5% glucose was added to the growth medium (“induced cells”). The culture was concentrated 10-fold and the concentrates were incubated for 30 minutes with 10% MAG at different temperatures (0, 20, 40, and 60° C.). The mixtures were preserved as described previously.
Effect of incubation time on accumulation of MAG in logarithmic E. coli cells. Cell concentrates were prepared as described previously (0.5% glucose was added to the growth medium) and incubated with 10% MAG at 37° C. for 0, 2.5, 5, 15, 30, and 60 minutes. The mixtures were preserved as described previously.
Effect of growth stage on accumulation of MAG in E. coli cells. E. coli cultures were grown in L-broth with 0.5% glucose as described previously and harvested at OD550=0.1 (early-log), 0.5 (mid-log), 1.0 (late-log) and 2.0 (stationary cells). The cells in each culture were concentrated and split in two aliquots. […]

[1] = 10% MAG at 37° C., Incubated for 0 min
[2] = 10% MAG at 37° C., Incubated for 2.5 min
[3] = 10% MAG at 37° C., Incubated for 5 min
[4] = 10% MAG at 37° C., Incubated for 15 min
[5] = 10% MAG at 37° C., Incubated for 30 min
[6] = 10% MAG at 37° C., Incubated for 60 min
[7] = 10% MAG for 30 minutes, Loaded at 0° C.
[8] = 10% MAG for 30 minutes, Loaded at 20° C.
[9] = 10% MAG for 30 minutes, Loaded at 40° C.
[10] = 10% MAG for 30 minutes, Loaded at 60° C.

Structure (SMILES): COC1OC(CO)C(O)C(O)C1O (centres unmarked) [MAG, a-methyl-glucoside]
- Preservation Yield % Survival [1]: 2.6 +/− 0.8%
- Preservation Yield Cfu/ml [1]: 5.3 × 10^7 +/− 1.7 × 10^7 Cfu/ml
- Stability (7 days at RT) % Survival [1]: 1.2 +/− 0.7%
- Stability (7 days at RT) Cfu/ml [1]: 2.4 × 10^7 Cfu/ml
- Stability (17 days at RT) % Survival [1]: 1.8 +/− 0.5%
- Stability (17 days at RT) Cfu/ml [1]: 3.6 × 10^7 Cfu/ml
- Preservation Yield % Survival [2]: 5.8 +/− 1.1%
- Preservation Yield Cfu/ml [2]: 1.2 × 10^8 +/− 2.1 × 10^7 Cfu/ml
- Stability (7 days at RT) % Survival [2]: 4.9 +/− 0.8%
- Stability (7 days at RT) Cfu/ml [2]: 9.6 × 10^7 Cfu/ml
- Stability (17 days at RT) % Survival [2]: 2.9 +/− 0.6%
- Stability (17 days at RT) Cfu/ml [2]: 5.9 × 10^7 Cfu/ml
- Preservation Yield % Survival [3]: 9.9 +/− 0.6%
- Preservation Yield Cfu/ml [3]: 2.0 × 10^8 +/− 1.1 × 10^7 Cfu/ml
- Stability (7 days at RT) % Survival [3]: 6.8 +/− 1.2%
- Stability (7 days at RT) Cfu/ml [3]: 1.4 × 10^8 Cfu/ml
- Stability (17 days at RT) % Survival [3]: 9.5 +/− 2.7%
- Stability (17 days at RT) Cfu/ml [3]: 1.9 × 10^8 Cfu/ml
- Preservation Yield % Survival [4]: 16.8 +/− 2.8%
- Preservation Yield Cfu/ml [4]: 3.4 × 10^8 +/− 5.6 × 10^7 Cfu/ml
- Stability (7 days at RT) % Survival [4]: 10.4 +/− 0.4%
- Stability (7 days at RT) Cfu/ml [4]: 2.1 × 10^8 Cfu/ml
- Stability (17 days at RT) % Survival [4]: 11.8 +/− 2.6%
- Stability (17 days at RT) Cfu/ml [4]: 2.4 × 10^8 Cfu/ml
- Preservation Yield % Survival [5]: 19.9 +/− 2.2%
- Preservation Yield Cfu/ml [5]: 4.0 × 10^8 +/− 4.4 × 10^7 Cfu/ml
- Stability (7 days at RT) % Survival [5]: 13.0 +/− 2.7%
- Stability (7 days at RT) Cfu/ml [5]: 2.6 × 10^8 Cfu/ml
- Stability (17 days at RT) % Survival [5]: 16.8 +/− 2.6%
- Stability (17 days at RT) Cfu/ml [5]: 3.4 × 10^8 Cfu/ml
- Preservation Yield % Survival [6]: 22.2 +/− 3.0%
- Preservation Yield Cfu/ml [6]: 4.4 × 10^8 +/− 6.1 × 10^7 Cfu/ml
- Stability (7 days at RT) % Survival [6]: 16.3 +/− 1.9%
- Stability (7 days at RT) Cfu/ml [6]: 3.3 × 10^8 Cfu/ml
- Stability (17 days at RT) % Survival [6]: 19.3 +/− 3.9%
- Stability (17 days at RT) Cfu/ml [6]: 3.9 × 10^8 Cfu/ml
- Preservation Yield % Survival [7]: 8.2 +/− 1.4%
- Preservation Yield Cfu/ml [7]: 1.6 × 10^8 Cfu/ml
- Stability (9 Days at RT°) % Survival [7]: 5.0 +/− 0.6%
- Stability (9 Days at RT°) Cfu/ml [7]: 9.4 × 10^7 Cfu/ml
- Stability (16 Days at RT°) % Survival [7]: 5.2 +/− 1.5%
- Stability (16 Days at RT°) Cfu/ml [7]: 9.9 × 10^7 Cfu/ml
- Preservation Yield % Survival [8]: 14.1 +/− 2.6%
- Preservation Yield Cfu/ml [8]: 2.7 × 10^8 Cfu/ml
- Stability (9 Days at RT°) % Survival [8]: 8.7 +/− 0.6%
- Stability (9 Days at RT°) Cfu/ml [8]: 1.6 × 10^8 Cfu/ml
- Stability (16 Days at RT°) % Survival [8]: 7.3 +/− 1.7%
- Stability (16 Days at RT°) Cfu/ml [8]: 1.4 × 10^8 Cfu/ml
- Preservation Yield % Survival [9]: 23.2 +/− 3.5%
- Preservation Yield Cfu/ml [9]: 4.4 × 10^8 Cfu/ml
- Stability (9 Days at RT°) % Survival [9]: 28.1 +/− 3.5%
- Stability (9 Days at RT°) Cfu/ml [9]: 5.3 × 10^8 Cfu/ml
- Stability (16 Days at RT°) % Survival [9]: 21.0 +/− 1.9%
- Stability (16 Days at RT°) Cfu/ml [9]: 3.9 × 10^8 Cfu/ml
- Preservation Yield % Survival [10]: 0%
- Preservation Yield Cfu/ml [10]: 1.4 × 10^4 Cfu/ml
- Stability (9 Days at RT°) % Survival [10]: 0%
- Stability (9 Days at RT°) Cfu/ml [10]: 1.2 × 10^4 Cfu/ml
- Stability (16 Days at RT°) % Survival [10]: 0%
- Stability (16 Days at RT°) Cfu/ml [10]: 1.3 × 10^4 Cfu/ml
- Preservation Yield (Day 0) % Survival (OD = 0.1 (early-log)): 11.3 +/− 0.9%
- Preservation Yield (Day 0) Cfu/ml (OD = 0.1 (early-log)): 1.6 × 10^7 Cfu/ml
- Stability (Day 7 at RT) % Survival (OD = 0.1 (early-log)): 8.2 +/− 0.8%
- Stability (Day 7 at RT) Cfu/ml (OD = 0.1 (early-log)): 1.2 × 10^7 Cfu/ml
- Stability (Day 14) % Survival (OD = 0.1 (early-log)): 9.9 +/− 2.2%
- Stability (Day 14) Cfu/ml (OD = 0.1 (early-log)): 1.5 × 10^7 Cfu/ml
- Preservation Yield (Day 0) % Survival (OD = 0.5 (mid-log)): 22.2 +/− 2.9%
- Preservation Yield (Day 0) Cfu/ml (OD = 0.5 (mid-log)): 5.5 × 10^8 Cfu/ml
- Stability (Day 7 at RT) % Survival (OD = 0.5 (mid-log)): 21.6 +/− 4.7%
- Stability (Day 7 at RT) Cfu/ml (OD = 0.5 (mid-log)): 5.3 × 10^8 Cfu/ml
- Stability (Day 14) % Survival (OD = 0.5 (mid-log)): 17.4 +/− 1.2%
- Stability (Day 14) Cfu/ml (OD = 0.5 (mid-log)): 4.3 × 10^8 Cfu/ml
- Preservation Yield (Day 0) % Survival (OD = 1.0 (late-log)): 26.3 +/− 4.7%
- Preservation Yield (Day 0) Cfu/ml (OD = 1.0 (late-log)): 2.3 × 10^9 Cfu/ml
- Stability (Day 7 at RT) % Survival (OD = 1.0 (late-log)): 36.1 +/− 7.5%
- Stability (Day 7 at RT) Cfu/ml (OD = 1.0 (late-log)): 3.2 × 10^9 Cfu/ml
- Stability (Day 14) % Survival (OD = 1.0 (late-log)): 33.0 +/− 5.7%
- Stability (Day 14) Cfu/ml (OD = 1.0 (late-log)): 2.9 × 10^9 Cfu/ml
- Preservation Yield (Day 0) % Survival (OD = 2.0 (stationary cells)): 38.8 +/− 5.8%
- Preservation Yield (Day 0) Cfu/ml (OD = 2.0 (stationary cells)): 2.8 × 10^9 Cfu/ml
- Stability (Day 7 at RT) % Survival (OD = 2.0 (stationary cells)): 29.9 +/− 3.6%
- Stability (Day 7 at RT) Cfu/ml (OD = 2.0 (stationary cells)): 2.1 × 10^9 Cfu/ml
- Stability (Day 14) % Survival (OD = 2.0 (stationary cells)): 35.3 +/− 7.5%
- Stability (Day 14) Cfu/ml (OD = 2.0 (stationary cells)): 2.5 × 10^9 Cfu/ml
- survived drying (mid-logarithmic cells loaded with 1% at 37° C. for 30 minutes): 12%
- survived drying (mid-logarithmic cells loaded with 5% at 37° C. for 30 minutes): 24%
